These are literature values, as cited in article PMC3547157 (Journal of the American Chemical Society, 2012).

SMILES strings stand for the structures.

This data set deals with T1, COX-2 enzyme (Homo sapiens, UniProt P35354).
T1 sequence (P35354 18-604): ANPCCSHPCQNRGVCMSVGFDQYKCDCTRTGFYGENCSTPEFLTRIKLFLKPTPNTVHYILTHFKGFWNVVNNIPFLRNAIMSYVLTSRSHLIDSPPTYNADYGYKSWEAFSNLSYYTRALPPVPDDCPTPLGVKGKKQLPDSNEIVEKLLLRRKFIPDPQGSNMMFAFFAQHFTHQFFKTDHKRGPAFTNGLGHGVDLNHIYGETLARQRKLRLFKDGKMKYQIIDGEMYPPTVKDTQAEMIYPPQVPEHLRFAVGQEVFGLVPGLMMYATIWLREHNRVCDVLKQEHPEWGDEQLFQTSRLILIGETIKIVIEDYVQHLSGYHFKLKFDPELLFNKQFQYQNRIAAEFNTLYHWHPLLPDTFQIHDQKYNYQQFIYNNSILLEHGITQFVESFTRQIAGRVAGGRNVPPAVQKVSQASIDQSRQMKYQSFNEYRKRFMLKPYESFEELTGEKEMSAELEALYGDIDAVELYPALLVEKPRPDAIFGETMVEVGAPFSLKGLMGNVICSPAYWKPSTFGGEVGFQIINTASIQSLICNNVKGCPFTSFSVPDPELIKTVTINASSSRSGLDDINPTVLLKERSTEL
The note with it: read-out: reported IC50 of naproxen to COX-2; literature values.

For `COc1ccc2cc([C@H](C)C(=O)O)ccc2c1` [naproxen], the IC50 (usually the concentration at which inhibition is half-maximal) is 2 to 28.4 µM.
